Measured values as given in patent US20020026053A1, “Novel 3-(substituted) -2- indolinones compounds and use thereof as inhibitors of protein kinase activity” (priority 1997, published 2002).
“And” between values parts separate entries of the source, which are not always exact repeats. Equal values may be shown once.

System: FLK-1 receptor
Assay: FLK-1 Assay (cellular/catalytic ELISA, VEGF-stimulated phosphotyrosine)
Type: cell-based
Set-up: concentration or dose not given beside the values
Conditions: not given
Method in brief: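 NIH3T3 C7#3 cells engineered to express Flk-1 were serum-starved overnight (0.1% FBS), then exposed to compound for 2 h at 37 °C (final dilution 1:200, 0.5% DMSO) before VEGF stimulation. Lysates captured on anti-FLK-1 antiserum plates; phosphotyrosine detected by UB40 antibody/POD-ABTS ELISA versus untreated controls.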

Going from `CCOc1ccccc1C=C1C(=O)Nc2c(Br)cc(Br)c(C)c21` [10717/H02] to `Cc1c(Br)cc(Br)c2c1C(=Cc1ccccc1O)C(=O)N2` [10720/H05], the “Flk Kinase % Inhibition (P.110)” value falls from 4.0% to −12.3%.

Going from `Cc1c(Br)cc(Br)c2c1C(=Cc1cccs1)C(=O)N2` [10717/H03] to `Cc1c(Br)cc(Br)c2c1C(=Cc1cccn1C)C(=O)N2` [10717/H04], the “Flk Kinase % Inhibition (P.110)” value falls from 8.6% to 0.4%.

Compared with `COc1ccc(C=C2C(=O)Nc3c(Br)cc(Br)c(C)c32)cc1OC` [10720/H04], `CCOc1cc(C=C2C(=O)Nc3c(Br)cc(Br)c(C)c32)ccc1O` [10720/H09] is higher in “Flk Kinase % Inhibition (P.110)” value: −5.8% for the first, −4.5% for the second.

Compared with `Cc1c(Br)cc(Br)c2c1C(=Cc1ccccc1)C(=O)N2` [10720/H06], `Cc1c(Br)cc(Br)c2c1C(=Cc1ccccc1Br)C(=O)N2` [10723/H07] is lower in “Flk Kinase % Inhibition (P.110)” value: 22.3% for the first, 5.0% for the second.

First: CSc1ccc(C=C2C(=O)Nc3c(Br)cc(Br)c(C)c32)s1 [10720/H07]
Second: Cc1c(Br)cc(Br)c2c1C(=Cc1ccc(Cl)s1)C(=O)N2 [10721/H07]
The “Flk Kinase % Inhibition (P.110)” value of the first is higher: −2.9% for the first, −7.0% for the second.

Compared with `Cc1cc(O)cc(O)c1C=C1C(=O)Nc2c(Br)cc(Br)c(C)c21` [10720/H08], `Cc1c(Br)cc(Br)c2c1C(=Cc1c(O)cc(O)cc1O)C(=O)N2` [10722/H03] is higher in “Flk Kinase % Inhibition (P.110)” value: −23.7% for the first, 2.1% for the second.

Going from `COc1ccc(O)c(C=C2C(=O)Nc3c(Br)cc(Br)c(C)c32)c1` [10720/H10] to `COc1ccc(C=C2C(=O)Nc3c(Br)cc(Br)c(C)c32)c(O)c1` [10723/H09], the “Flk Kinase % Inhibition (P.110)” value rises from −22.8% to −0.4%.

Going from `Cc1c(Br)cc(Br)c2c1C(=Cc1ncc[nH]1)C(=O)N2` [10720/H11] to `Cc1c(Br)cc(Br)c2c1C(=Cc1c[nH]cn1)C(=O)N2` [10725/H11], the “Flk Kinase % Inhibition (P.110)” value falls from −8.8% to −40.8%.

First: Cc1c(Br)cc(Br)c2c1C(=Cc1nc3ccccc3n1C)C(=O)N2 [10721/H02]
Second: Cc1c(Br)cc(Br)c2c1C(=Cc1cc3ccccc3o1)C(=O)N2 [10724/H07]
The “Flk Kinase % Inhibition (P.110)” value of the first is higher: 5.5% for the first, 1.1% for the second.

Compared with `Cc1c(Br)cc(Br)c2c1C(=Cc1nn(C)cc1Cl)C(=O)N2` [10721/H03], `Cc1cc(C=C2C(=O)Nc3c(Br)cc(Br)c(C)c32)[nH]n1` [10725/H05] is higher in “Flk Kinase % Inhibition (P.110)” value: 7.8% for the first, 21.6% for the second.

Compared with `Cc1cc(C=C2C(=O)Nc3c(Br)cc(Br)c(C)c32)sc1C` [10721/H04], `Cc1cc(C)c(C=C2C(=O)Nc3c(Br)cc(Br)c(C)c32)[nH]1` [10721/H08] is lower in “Flk Kinase % Inhibition (P.110)” value: 0.7% for the first, −6.8% for the second.

Compared with `Cc1c(Br)cc(Br)c2c1C(=Cc1cc3c([nH]1)CCCC3)C(=O)N2` [10721/H05], `Cc1c(Br)cc(Br)c2c1C(=Cc1cc3c4c(c1O)CCCN4CCC3)C(=O)N2` [10724/H05] is higher in “Flk Kinase % Inhibition (P.110)” value: −8.4% for the first, −0.4% for the second.

Going from `Cc1c(Br)cc(Br)c2c1C(=Cc1cc([N+](=O)[O-])cc(CCl)c1O)C(=O)N2` [10721/H06] to `Cc1c(Br)cc(Br)c2c1C(=Cc1ccc(O)c([N+](=O)[O-])c1)C(=O)N2` [10724/H03], the “Flk Kinase % Inhibition (P.110)” value rises from −7.9% to 1.8%.

Going from `Cc1c(Br)cc(Br)c2c1C(=Cc1ccc(O)c(C(C)(C)C)c1)C(=O)N2` [10721/H09] to `Cc1cc(C=C2C(=O)Nc3c(Br)cc(Br)c(C)c32)ccc1O` [10723/H06], the “Flk Kinase % Inhibition (P.110)” value rises from 7.0% to 10.6%.

First: Cc1c(Br)cc(Br)c2c1C(=Cc1cc(Br)c(O)c(C(C)(C)C)c1)C(=O)N2 [10721/H10]
Second: Cc1c(Br)cc(Br)c2c1C(=Cc1cc(Cl)c(O)c(C(C)(C)C)c1)C(=O)N2 [10722/H08]
The “Flk Kinase % Inhibition (P.110)” value of the first is higher: 10.2% for the first, −20.3% for the second.

First: Cc1c(Br)cc(Br)c2c1C(=Cc1cc(C(C)(C)C)c(O)c(C(C)(C)C)c1)C(=O)N2 [10721/H11]
Second: Cc1cc(C=C2C(=O)Nc3c(Br)cc(Br)c(C)c32)cc(C(C)(C)C)c1O [10726/H04]
The “Flk Kinase % Inhibition (P.110)” value of the first is lower: −6.0% for the first, 2.5% for the second.

Compared with `Cc1c(Br)cc(Br)c2c1C(=Cc1cc([N+](=O)[O-])c(O)c(C(C)(C)C)c1)C(=O)N2` [10722/H02], `Cc1c(Br)cc(Br)c2c1C(=Cc1ccc([N+](=O)[O-])c(O)c1)C(=O)N2` [10724/H04] is lower in “Flk Kinase % Inhibition (P.110)” value: 4.2% for the first, −3.0% for the second.

Compared with `Cc1c(Br)cc(Br)c2c1C(=Cc1ccc([N+](=O)[O-])s1)C(=O)N2` [10722/H04], `Cc1c(Br)cc(Br)c2c1C(=Cc1csc([N+](=O)[O-])c1)C(=O)N2` [10722/H09] is lower in “Flk Kinase % Inhibition (P.110)” value: 3.8% for the first, 3.3% for the second.

First: Cc1c(Br)cc(Br)c2c1C(=Cc1ccc(C(=O)O)cc1)C(=O)N2 [10722/H05]
Second: Cc1c(Br)cc(Br)c2c1C(=Cc1ccc(C(F)(F)F)cc1)C(=O)N2 [10722/H11]
The “Flk Kinase % Inhibition (P.110)” value of the first is higher: 4.3% for the first, −3.3% for the second.

First: Cc1c(Br)cc(Br)c2c1C(=Cc1ccc(F)cc1F)C(=O)N2 [10722/H06]
Second: Cc1c(Br)cc(Br)c2c1C(=Cc1ccc(O)cc1O)C(=O)N2 [10723/H08]
The “Flk Kinase % Inhibition (P.110)” value of the first is higher: 18.9% for the first, −4.2% for the second.

Going from `Cc1cc(C=C2C(=O)Nc3c(Br)cc(Br)c(C)c32)cc(C)c1O` [10722/H07] to `Cc1c(Br)cc(Br)c2c1C(=Cc1cc(O)c(O)c(Br)c1)C(=O)N2` [10723/H04], the “Flk Kinase % Inhibition (P.110)” value falls from 2.3% to −20.2%.

First: CCCCN(CCCC)c1ccc(C=C2C(=O)Nc3c(Br)cc(Br)c(C)c32)cc1 [10722/H10]
Second: Cc1c(Br)cc(Br)c2c1C(=Cc1cccc(Br)c1)C(=O)N2 [10723/H10]
The “Flk Kinase % Inhibition (P.110)” value of the first is lower: −14.1% for the first, −13.4% for the second.

Going from `Cc1c(Br)cc(Br)c2c1C(=Cc1ccc(O)c(O)c1O)C(=O)N2` [10723/H02] to `COc1cccc(C=C2C(=O)Nc3c(Br)cc(Br)c(C)c32)c1O` [10723/H03], the “Flk Kinase % Inhibition (P.110)” value falls from 9.0% to 6.1%.

Going from `CC(=O)Oc1ccc(C=C2C(=O)Nc3c(Br)cc(Br)c(C)c32)cc1OC(C)=O` [10723/H05] to `COc1ccc(Br)c(C=C2C(=O)Nc3c(Br)cc(Br)c(C)c32)c1O` [10725/H03], the “Flk Kinase % Inhibition (P.110)” value falls from −2.5% to −5.8%.

`Cc1c(Br)cc(Br)c2c1C(=Cc1cc(C(C)(C)C)cc(C(C)(C)C)c1O)C(=O)N2` [10723/H11] and `Cc1c(Br)cc(Br)c2c1C(=Cc1cc(C(C)C)c(O)c(C(C)C)c1)C(=O)N2` [10724/H06] are the same in “Flk Kinase % Inhibition (P.110)” value: −5.1% for the first, −5.1% for the second.

Compared with `Cc1c(Br)cc(Br)c2c1C(=Cc1ccc(N(C)C)c3ccccc13)C(=O)N2` [10724/H02], `Cc1c(Br)cc(Br)c2c1C(=Cc1ccccc1[N+](=O)[O-])C(=O)N2` [10726/H02] is lower in “Flk Kinase % Inhibition (P.110)” value: 11.5% for the first, −8.5% for the second.

Going from `COc1cc(O)c(C=C2C(=O)Nc3c(Br)cc(Br)c(C)c32)c(OC)c1` [10724/H08] to `COc1cc(C)cc(O)c1C=C1C(=O)Nc2c(Br)cc(Br)c(C)c21` [10725/H06], the “Flk Kinase % Inhibition (P.110)” value rises from 13.1% to 16.1%.

Going from `Cc1c(Br)cc(Br)c2c1C(=Cc1cccn1-c1ccc(Cl)cc1)C(=O)N2` [10724/H09] to `Cc1c(Br)cc(Br)c2c1C(=Cc1c(Br)cnn1-c1ccc(Cl)cc1)C(=O)N2` [10725/H10], the “Flk Kinase % Inhibition (P.110)” value rises from 1.3% to 7.8%.

Going from `CCc1ccc(C=C2C(=O)Nc3c(Br)cc(Br)c(C)c32)o1` [10724/H10] to `Cc1ccc(C=C2C(=O)Nc3c(Br)cc(Br)c(C)c32)o1` [10725/H04], the “Flk Kinase % Inhibition (P.110)” value falls from 5.8% to −5.1%.

Going from `Cc1c(Br)cc(Br)c2c1C(=Cc1sc3scc(C)c3c1C)C(=O)N2` [10724/H11] to `Cc1c(Br)cc(Br)c2c1C(=Cc1sccc1Br)C(=O)N2` [10725/H02], the “Flk Kinase % Inhibition (P.110)” value falls from 8.6% to −7.6%.

Compared with `Cc1c(Br)cc(Br)c2c1C(=Cc1ccc(N3CCN(C=O)CC3)cc1)C(=O)N2` [10725/H07], `Cc1c(Br)cc(Br)c2c1C(=Cc1ccc(N3CCOCC3)cc1)C(=O)N2` [10725/H08] is higher in “Flk Kinase % Inhibition (P.110)” value: 8.6% for the first, 17.2% for the second.

First: COC(=O)Cc1c(Cl)[nH]c(C=C2C(=O)Nc3c(Br)cc(Br)c(C)c32)c1C(=O)OC [10725/H09]
Second: CCOC(=O)c1[nH]c(C=C2C(=O)Nc3c(Br)cc(Br)c(C)c32)c(C(=O)OC)c1C [10726/H03]
The “Flk Kinase % Inhibition (P.110)” value of the first is lower: −6.1% for the first, 0.4% for the second.

First: COc1cccc(C=C2C(=O)Nc3ccc(S(=O)(=O)N4CCOCC4)cc32)c1 [10736/F10]
Second: O=C1Nc2ccc(S(=O)(=O)N3CCOCC3)cc2C1=Cc1ccccc1Cl [10736/F11]
The “Flk Kinase % Inhibition (P.110)” value of the first is higher: 7.7% for the first, 3.7% for the second.

First: O=C1Nc2ccc(CCCl)cc2C1=Cc1ccc(Cl)cc1 [10736/G02]
Second: Cc1cccc(C=C2C(=O)Nc3ccc(CCCl)cc32)c1 [10736/G04]
The “Flk Kinase % Inhibition (P.110)” value of the first is lower: −7.2% for the first, 13.0% for the second.

In the case of `O=C1Nc2ccc(CCCl)cc2C1=Cc1ccccc1C(F)(F)F` [10736/G03], the “Flk Kinase % Inhibition (P.110)” value is reported as 4.5%.

Same assay, conditions: protocol P.110

For `Cc1ccc(C=C2C(=O)Nc3ccc(CCCl)cc32)cc1` [10736/G05], the “Flk Kinase % Inhibition (P.110)” value was 2.3% and 5.9%.

Going from `O=C1Nc2ccc(CCCl)cc2C1=Cc1cccc(F)c1` [10736/G07] to `COc1cccc(C=C2C(=O)Nc3ccc(CCCl)cc32)c1` [10736/G10], the “Flk Kinase % Inhibition (P.110)” value falls from 9.4% to 6.0%.

Going from `O=C1Nc2ccc(CCCl)cc2C1=Cc1ccccc1F` [10736/G08] to `O=C1Nc2ccc(CCCl)cc2C1=Cc1ccccc1Cl` [10736/G11], the “Flk Kinase % Inhibition (P.110)” value rises from −0.1% to 0.0%.

Compared with `CCc1ccc(C=C2C(=O)Nc3ccc(CCCl)cc32)cc1` [10736/G09], `Cc1c(Br)cc(Br)c2c1C(=Cc1ccc(Cl)cc1)C(=O)N2` [10736/H02] is higher in “Flk Kinase % Inhibition (P.110)” value: −2.1% for the first, 6.1% for the second.

Going from `Cc1c(Br)cc(Br)c2c1C(=Cc1ccccc1C(F)(F)F)C(=O)N2` [10736/H03] to `Cc1cccc(C=C2C(=O)Nc3c(Br)cc(Br)c(C)c32)c1` [10736/H04], the “Flk Kinase % Inhibition (P.110)” value falls from 15.1% to 14.0%.

`Cc1ccc(C=C2C(=O)Nc3c(Br)cc(Br)c(C)c32)cc1` [10736/H05] was tested, and the “Flk Kinase % Inhibition (P.110)” value was 16.3%.
